From US6350759B1, “Dihydro- and tetrahydro-quinoline compounds” (Adir et Compagnie, priority 1998, dated 2002)

Tested on: Wistar rat
Assay: Delayed hippocampal neurodegeneracy induced by kainic acid in the Wistar rat
Assay type: in vivo
Conditions: 150 mg/kg i.p. 30 minutes before kainic acid 12 mg/kg s.c.; count 7 days later
Method: This method is frequently used as a model of temporal epilepsy in humans (Ben-Ari, Neurosci., 14, 375-403, 1985).
Male Wistar rats (180-220 g, CERJ) are given kainic acid (12 mg/kg) by the subcutaneous route. The animals are sacrificed by decapitation 7 days later. The brains are removed and then cut, in the frozen state, into frontal sections of 7 μm, which are stained (hematoxylin-eosin). Hippocampal neurone death is assessed by a neurone count at the level of the CA3 layer of the hippocampus. The results are expressed as a percentage of viable neurones in the CA3 layer compared with the total neurone population.

Row | SMILES | reduction in neurone death (CA3 layer), factor
1 | CCOc1ccc2c(c1)C=CC1(CCCCC1)N2.Cl [Example 1, 6-Ethoxy-1,2-dihydroquinoline-2-spirocyclohexane hydrochloride] | 3

Tested on: not given
Assay: not given
Conditions: not given

Row | SMILES | melting point
2 | CCOc1cccc2c1NC1(C=C2)CCCCC1.Cl | 154 to 155 °C
3 | CCOc1c(C)c(C)c2c(c1C)C=CC1(CCCCC1)N2.Cl | 158 to 161 °C
4 | CCOc1c(C)c(C)c2c(c1C)CCC1(CCCCC1)N2.Cl | 192 to 198 °C (dec.)
5 | CCOc1c(C(C)C)cc2c(c1C(C)C)CCC(C)(C)N2.Cl | 227 to 230 °C
6 | CCOc1c(C(C)C)cc2c(c1C(C)C)C=CC1(CCCCC1)N2.Cl | 166 to 169 °C (dec.)
7 | CC(C)(C)Oc1ccc2c(c1)C=CC1(CCCCC1)N2.Cl | 132 °C
8 | CC(C)(C)C(=O)Oc1ccc2c(c1)C=CC1(CCCCC1)N2.Cl | 180 °C
9 | C1=CC2(CCCCC2)Nc2ccc(Oc3ccccc3)cc21.Cl | 176 °C
10 | CCOc1c(C)cc2c(c1C)C=CC1(CCCCC1)N2.Cl | 175 to 180 °C
11 | COc1ccc2c(c1)C=CC1(CCCCC1)N2.Cl | 191 °C

Tested on: C57BL/6 mouse
Assay: Antagonism of dopaminergic striatonigral dysfunctions induced by methamphetamine in the C57BL/6 mouse
Assay type: in vivo
Conditions: dose 2×150 mg/kg i.p.
Method: Male mice (C57BL/6 20-25 g) are given four injections of d-methamphetamine (5 mg/kg base, i.p.) at intervals of 2 hours (Sonsalla and Heikkila, Prog. Neuro-Psychopharmacolo. & Biol. Psychiat., 12, 345-354, 1988) and the anti-oxidant being tested is administered (i.p.) 30 minutes before the first and third injections of d-methamphetamine (Yamamoto and Zhu, J. Pharmacol. Exp. Ther. 287, 107-114, 1988). The rectal temperature is monitored throughout the duration of the experiment. The animals are sacrificed by decapitation 72 hours after the last injection of d-methamphetamine. The brains are rapidly extracted, and the striata are removed, frozen in liquid nitrogen and weighed. The striata are homogenised by sonication in 20 volumes of 0.1N HClO4, and the homogenate is centrifuged at 15000 g for 20 minutes at 4° C. The supernatants are collected for assaying the striata tissue levels of dopamine by means of HPLC coupled with coulometric detection (Bonhomme et al., Brain Res., 675, 215-233, 1995). The results are expressed as μg of dopamine/g of tissue. […] That is true especially of the compound of Example 1 administered in a dose of 2×150 mg/kg i.p.

Row | SMILES | effect on dopaminergic deficit induced by methamphetamine (striatal dopamine)
12 | CCOc1ccc2c(c1)C=CC1(CCCCC1)N2.Cl [Example 1, 6-Ethoxy-1,2-dihydroquinoline-2-spirocyclohexane hydrochloride] | oppose the dopaminergic deficit

Tested on: Wistar rat
Assay: Neuroprotection in transient and global cerebral ischaemia in the Wistar rat
Assay type: in vivo
Conditions: administration 30 minutes before the start of the ischaemia; count 7 days after
Method: This animal model (Pulsinelli and Brierley, Stroke 10, 267-272, 1979), is commonly used for the detection of central anti-ischaemic agents (Buchan et al., Neurosci. Lett., 132(2), 255-258, 1991).
Under pentobarbital anaesthesia, the vertebral arteries of male Wistar rats (280-320 g, Charles River) are permanently occluded by electrocoagulation and carotid ligatures are placed around each common carotid. 24 hours later, ischaemia is brought about for […] by clamping the carotids with the carotid ligatures. This ischaemic episode causes delayed neurone death at the level of the pyramidal cells of the hippocampus. Neurone death is measured by a neurone count on sections of brain (7 μm, staining: hematoxylin-eosin) of rats sacrificed 7 days after the ischaemic episode. The results are expressed as a percentage of viable hippocampal neurones compared with the total hippocampal neurone population. […] That is true especially of the compound of Example 1, which, on administration 30 minutes before the start of the ischaemia, induces a reduction by a factor of 2.7.

Row | SMILES | reduction of hippocampal neurone death, factor
13 | CCOc1ccc2c(c1)C=CC1(CCCCC1)N2.Cl [Example 1, 6-Ethoxy-1,2-dihydroquinoline-2-spirocyclohexane hydrochloride] | 2.7
